Molecular target: rhodopsin (Bos taurus, UniProt P02699)
Test: extra MII stabilization assay
Assay type: biochemical

Sequence of rhodopsin (P02699 whole entry): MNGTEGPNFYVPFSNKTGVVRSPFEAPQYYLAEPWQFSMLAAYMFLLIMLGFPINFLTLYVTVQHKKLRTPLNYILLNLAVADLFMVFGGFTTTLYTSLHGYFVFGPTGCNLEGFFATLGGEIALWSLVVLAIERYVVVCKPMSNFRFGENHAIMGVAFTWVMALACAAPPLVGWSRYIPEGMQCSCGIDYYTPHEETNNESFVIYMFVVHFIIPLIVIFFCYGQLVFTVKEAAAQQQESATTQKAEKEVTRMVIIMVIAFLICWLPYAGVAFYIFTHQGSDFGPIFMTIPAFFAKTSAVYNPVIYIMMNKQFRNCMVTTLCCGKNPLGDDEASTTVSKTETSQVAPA

| Substance | EC50 [mM] |
| --- | --- |
| AW 00987 [compound 5] | 11.8 ± 6.7 |
| KM 05703 [compound 4] | 3 ± 0.28 |
| RJC 01340 [compound 3] | 16.3 ± 12.3 |
